Assay results: ChEMBL document CHEMBL1649204, “Evaluation of analogs of reutericyclin as prospective candidates for treatment of staphylococcal skin infections” (Antimicrob Agents Chemother, 2009)
≈ marks a conversion by molar mass, not a printed value. Calls of active or inactive are those of the source. No cut-off for these calls is given here.

Tests used:
Staphylococcus aureus [1] = assay: Antimicrobial activity against methicillin-susceptible Staphylococcus aureus by microdilution method; format: functional
Staphylococcus aureus [2] = assay: Antimicrobial activity against methicillin-resistant Staphylococcus aureus by microdilution method; format: functional
Staphylococcus aureus [3] = assay: Antimicrobial activity against mupirocin- and methicillin-resistant Staphylococcus aureus by microdilution method; format: functional
Streptococcus pyogenes = assay: Antimicrobial activity against Streptococcus pyogenes by microdilution method; format: functional
Staphylococcus aureus [4] = assay: Antimicrobial activity against Staphylococcus aureus 8235 selected after 4 times MIC pre-incubated for 1 hr by microdilution method; format: functional
[5] = Cytotoxicity against human CCD-32Sk cells after 48 hrs by MTT assay; format: cell-based
Staphylococcus aureus [6] = assay: Antimicrobial activity against Staphylococcus aureus 8235 by microdilution method; format: functional
[7] = Therapeutic index, ratio of IC50 for human CCD-32Sk cells to MIC for Staphylococcus aureus 8235; format: cell-based; settings: read-out: TI
Staphylococcus aureus [8] = assay: Antimicrobial activity against Staphylococcus aureus isolate 8235 at >200 ug/ml by microdilution method in presence of 50 % human serum; format: functional, organism-based
Staphylococcus aureus [9] = assay: Bacteriostatic activity against Staphylococcus aureus isolate 8235 assessed as log reduction in bacterial count at 32 times MIC after 24 hrs by microdilution method; format: functional
Staphylococcus aureus [10] = assay: Antimicrobial activity against methicillin-resistant Staphylococcus aureus ATCC 33591 grown as biofilms by microdilution method; format: functional
Staphylococcus aureus [11] = assay: Antimicrobial activity against methicillin-susceptible Staphylococcus aureus ATCC 29213 grown as biofilms by microdilution method; format: functional
[12] = system: Staphylococcus epidermidis; assay: Antimicrobial activity against Staphylococcus epidermidis RP62A grown as biofilms by microdilution method; format: functional
Staphylococcus aureus [13] = assay: Antimicrobial activity against methicillin-resistant Staphylococcus aureus ATCC 33591 by microdilution method; format: functional
Staphylococcus aureus [14] = assay: Antimicrobial activity against methicillin-susceptible Staphylococcus aureus ATCC 29213 by microdilution method; format: functional
[15] = system: Staphylococcus epidermidis; assay: Antimicrobial activity against Staphylococcus epidermidis RP62A by microdilution method; format: functional
Staphylococcus aureus [16] = assay: Antimicrobial activity against Staphylococcus aureus ATCC 29213 infected BALB/c mouse at 10 % administered topically 4 hrs post infection twice a day for 5 days; format: functional, organism-based
Staphylococcus aureus [17] = assay: Antimicrobial activity against Staphylococcus aureus ATCC 29213 infected BALB/c mouse at 2 % administered topically 4 hrs post infection twice a day for 5 days; format: functional, organism-based
[18] = Homo sapiens, CCD-32Sk, 48 h, read-out: IC50

SMILES	MIC50 (Staphylococcus aureus [1])	MIC90 (Staphylococcus aureus [1])	MIC50 (Staphylococcus aureus [2])	MIC90 (Staphylococcus aureus [2])	MIC50 (Staphylococcus aureus [3])	MIC90 (Staphylococcus aureus [3])	MIC50 (Streptococcus pyogenes)	MIC90 (Streptococcus pyogenes)	MIC (Staphylococcus aureus [4])	IC50 [5, 18]	MIC (Staphylococcus aureus [6])	selectivity ratio [7]	FC (Staphylococcus aureus [9])	MBEC (Staphylococcus aureus [11])	MBIC (Staphylococcus aureus [11])	MBEC [12]	MBIC [12]	MIC (Staphylococcus aureus [13])	MIC (Staphylococcus aureus [14])	MIC [15]	also measured
CCCCCCCCCCN1C(=O)/C(=C(/C)O)C(=O)[C@@H]1C(C)C	0.8 µg/mL (≈ 2.47 µM)	0.8 µg/mL (≈ 2.47 µM)	0.8 µg/mL (≈ 2.47 µM)	1.6 µg/mL (≈ 4.95 µM)	1.6 µg/mL (≈ 4.95 µM)	3.12 µg/mL (≈ 9.65 µM)	0.2 µg/mL (≈ 0.618 µM)	0.8 µg/mL (≈ 2.47 µM)	0.8 µg/mL (≈ 2.47 µM)	356 µg/mL (≈ 1100 µM)	25 µg/mL (≈ 77.3 µM)	14.4	2.6	25 µg/mL	1.6 µg/mL	25 µg/mL	0.8 µg/mL	0.8 µg/mL (≈ 2.47 µM)	0.8 µg/mL (≈ 2.47 µM)	0.8 µg/mL (≈ 2.47 µM)	Activity (Staphylococcus aureus [8]): inactive; MBIC (Staphylococcus aureus [10]): 0.8 µg/mL
CC1(C)S[C@@H]2[C@H](NC(=O)[C@H](N)c3ccc(O)cc3)C(=O)N2[C@H]1C(=O)O [AMOXICILLIN]									12.5 µg/mL (≈ 34.2 µM)		inactive		2.6								IC50 ([5]; ccd-32sk): Not Active
CCCCCCCCCCN1C(=O)/C(=C(/C)O)C(=O)[C@@H]1CC(C)C	0.4 µg/mL (≈ 1.19 µM)	0.8 µg/mL (≈ 2.37 µM)	0.8 µg/mL (≈ 2.37 µM)	1.6 µg/mL (≈ 4.74 µM)	0.8 µg/mL (≈ 2.37 µM)	1.6 µg/mL (≈ 4.74 µM)	0.2 µg/mL (≈ 0.593 µM)	0.8 µg/mL (≈ 2.37 µM)	0.8 µg/mL (≈ 2.37 µM)	308 µg/mL (≈ 914 µM)	25 µg/mL (≈ 74.1 µM)	12.3	2.6	50 µg/mL	3.12 µg/mL	50 µg/mL	0.4 µg/mL	0.8 µg/mL (≈ 2.37 µM)	0.8 µg/mL (≈ 2.37 µM)	0.4 µg/mL (≈ 1.19 µM)	MIC (Staphylococcus aureus [1]): 0.4 µg/mL (≈ 1.19 µM); Activity (Staphylococcus aureus [8]): inactive; MBEC (Staphylococcus aureus [10]): 6.25 µg/mL; MBIC (Staphylococcus aureus [10]): 0.8 µg/mL; Activity (Staphylococcus aureus [16]): Active
CN[C@H](CC(C)C)C(=O)N[C@H]1C(=O)N[C@@H](CC(N)=O)C(=O)N[C@H]2C(=O)N[C@H]3C(=O)N[C@H](C(=O)N[C@H](C(=O)O)c4cc(O)cc(O)c4-c4cc3ccc4O)[C@H](O)c3ccc(c(Cl)c3)Oc3cc2cc(c3O[C@@H]2O[C@H](CO)[C@@H](O)[C@H](O)[C@H]2O[C@H]2C[C@](C)(N)[C@H](O)[C@H](C)O2)Oc2ccc(cc2Cl)[C@H]1O [VANCOMYCIN]	0.12 µg/mL (≈ 0.0828 µM)	0.2 µg/mL (≈ 0.138 µM)	0.2 µg/mL (≈ 0.138 µM)	0.4 µg/mL (≈ 0.276 µM)	> 200 µg/mL	> 200 µg/mL	0.024 µg/mL (≈ 0.0166 µM)	0.024 µg/mL (≈ 0.0166 µM)		> 20000 µg/mL	0.8 µg/mL (≈ 0.552 µM)	> 25000		>400 µg/mL	3.12 µg/mL	>400 µg/mL	12.5 µg/mL	1.6 µg/mL (≈ 1.1 µM)	0.8 µg/mL (≈ 0.552 µM)	1.6 µg/mL (≈ 1.1 µM)	MIC (Staphylococcus aureus [1]): 0.05 µg/mL (≈ 0.0345 µM); MBEC (Staphylococcus aureus [10]): >400 µg/mL; MBIC (Staphylococcus aureus [10]): 1.6 µg/mL
C/C(O)=C1\C(=O)[C@H](CC(C)C)N(Cc2ccc(-c3ccccc3)cc2)C1=O	0.8 µg/mL (≈ 2.2 µM)	1.6 µg/mL (≈ 4.4 µM)	1.6 µg/mL (≈ 4.4 µM)	1.6 µg/mL (≈ 4.4 µM)	1.6 µg/mL (≈ 4.4 µM)	1.6 µg/mL (≈ 4.4 µM)	0.2 µg/mL (≈ 0.55 µM)	0.8 µg/mL (≈ 2.2 µM)	0.8 µg/mL (≈ 2.2 µM)	529 µg/mL (≈ 1460 µM)	25 µg/mL (≈ 68.8 µM)	21.2	2.6	100 µg/mL	3.12 µg/mL	200 µg/mL	1.6 µg/mL	0.8 µg/mL (≈ 2.2 µM)	0.8 µg/mL (≈ 2.2 µM)	0.8 µg/mL (≈ 2.2 µM)	MIC (Staphylococcus aureus [1]): 0.8 µg/mL (≈ 2.2 µM); Activity (Staphylococcus aureus [8]): inactive; MBIC (Staphylococcus aureus [10]): 0.8 µg/mL
C=C(NC(=O)[C@@H](NC(=O)[C@H](Cc1cnc[nH]1)NC(=O)[C@@H](NC(=O)[C@H](CO)NC(=O)[C@@H]1CS[C@@H](C)[C@H]2NC(=O)C(=C)NC(=O)[C@H](NC(=O)[C@H](CCCCN)NC(=O)[C@H](CCSC)NC(=O)[C@H](CC(N)=O)NC(=O)[C@@H]3CS[C@@H](C)[C@@H](NC(=O)[C@H](CCCNN)NC(=O)[C@@H]4CS[C@@H](C)[C@@H](NC(=O)[C@@H]5CSC[C@@H](NC(=O)/C(=C\C)NC(=O)[C@@H](N)[C@@H](C)CC)C(=O)N[C@@H]([C@@H](C)CC)C(=O)NC(=C)C(=O)N[C@@H]([C@@H](C)CC)C(=O)N5)C(=O)N5CCC[C@H]5C(=O)NCC(=O)N4)C(=O)NCC(=O)N[C@@H](C)C(=O)N[C@@H]([C@@H](C)CC)C(=O)N[C@@H](CCSC)C(=O)NCC(=O)N3)[C@H](C)SC[C@H](NC2=O)C(=O)N[C@H](Cc2cnc[nH]2)C(=O)N1)[C@@H](C)CC)C(C)C)C(=O)N[C@@H](CCCCN)C(=O)O [NISIN]											inactive		2.6								IC50 ([5]; ccd-32sk): Not Active
CO[C@H]1/C=C/O[C@@]2(C)Oc3c(C)c(O)c4c(O)c(c(/C=N/N5CCN(C)CC5)c(O)c4c3C2=O)NC(=O)/C(C)=C\C=C\[C@H](C)[C@H](O)[C@@H](C)[C@@H](O)[C@@H](C)[C@H](OC(C)=O)[C@@H]1C [RIFAMPIN]														25 µg/mL	<0.2 µg/mL	50 µg/mL	<0.2 µg/mL	0.012 µg/mL (≈ 0.0146 µM)	0.006 µg/mL (≈ 0.00729 µM)	0.012 µg/mL (≈ 0.0146 µM)	MBEC (Staphylococcus aureus [10]): 6.25 µg/mL
C/C(=C\C(=O)OCCCCCCCCC(=O)O)C[C@@H]1OC[C@H](C[C@@H]2O[C@H]2[C@@H](C)[C@H](C)O)[C@@H](O)[C@H]1O [MUPIROCIN]	0.8 µg/mL (≈ 1.6 µM)	0.8 µg/mL (≈ 1.6 µM)	0.8 µg/mL (≈ 1.6 µM)	3.12 µg/mL (≈ 6.23 µM)	0.8 µg/mL (≈ 1.6 µM)	0.8 µg/mL (≈ 1.6 µM)	0.4 µg/mL (≈ 0.799 µM)	0.4 µg/mL (≈ 0.799 µM)		> 20000 µg/mL	12.5 µg/mL (≈ 25 µM)	> 1600		>400 µg/mL	<0.2 µg/mL	>400 µg/mL	<0.2 µg/mL	0.06 µg/mL (≈ 0.12 µM)	0.1 µg/mL (≈ 0.2 µM)	0.12 µg/mL (≈ 0.24 µM)	Activity (Staphylococcus aureus [8]): inactive; Activity (Staphylococcus aureus [17]): Active
C/C(O)=C1\C(=O)[C@H](CC(C)C)N(CC2=CCC3CC2C3(C)C)C1=O (some centres not stated)	1.6 µg/mL (≈ 4.83 µM)	3.12 µg/mL (≈ 9.41 µM)	3.12 µg/mL (≈ 9.41 µM)	3.12 µg/mL (≈ 9.41 µM)	3.12 µg/mL (≈ 9.41 µM)	3.12 µg/mL (≈ 9.41 µM)	0.4 µg/mL (≈ 1.21 µM)	1.6 µg/mL (≈ 4.83 µM)	1.6 µg/mL (≈ 4.83 µM)	377 µg/mL (≈ 1140 µM)	25 µg/mL (≈ 75.4 µM)	15.1	2.6	>=400 ug ml-1	6.2 µg/mL	>400 µg/mL	1.6 µg/mL	1.6 µg/mL (≈ 4.83 µM)	1.6 µg/mL (≈ 4.83 µM)	3.12 µg/mL (≈ 9.41 µM)	MIC (Staphylococcus aureus [1]): 1.6 µg/mL (≈ 4.83 µM); Activity (Staphylococcus aureus [8]): inactive; Activity (Staphylococcus aureus [16]): Active
C/C(O)=C1\C(=O)[C@H](CC(C)C)N(CCC(C)C/C=C/C(C)C)C1=O (some centres not stated)	0.8 µg/mL (≈ 2.38 µM)	1.6 µg/mL (≈ 4.77 µM)	0.8 µg/mL (≈ 2.38 µM)	1.6 µg/mL (≈ 4.77 µM)	0.8 µg/mL (≈ 2.38 µM)	1.6 µg/mL (≈ 4.77 µM)	0.4 µg/mL (≈ 1.19 µM)	0.8 µg/mL (≈ 2.38 µM)	0.8 µg/mL (≈ 2.38 µM)	256 µg/mL (≈ 763 µM)	25 µg/mL (≈ 74.5 µM)	10.2	2.6	50 µg/mL	3.12 µg/mL	200 µg/mL	0.4 µg/mL	0.8 µg/mL (≈ 2.38 µM)	0.8 µg/mL (≈ 2.38 µM)	0.8 µg/mL (≈ 2.38 µM)	MIC (Staphylococcus aureus [3]): 0.8 µg/mL (≈ 2.38 µM); Activity (Staphylococcus aureus [8]): inactive; MBIC (Staphylococcus aureus [10]): 0.4 µg/mL
